Laboratory results published in patent publication US7709526B2, “Use of cyclolignans and new cyclolignans” (Biovitrum AB, priority 2001, dated 2010).
Where two headings read alike, the source gives them in different places. Blank lines part the entries; values can stand above or below the compound they belong to.

Legend:
IGF-1R [1] = target: T1, IGF-1R (Homo sapiens, UniProt P08069); experiment: IGF-1R phosphorylation/autophosphorylation in intact FM55 melanoma cells (immunoprecipitation, Western blotting, OD); assay type: cell-based; parameters: The cells were then isolated and subjected to immuno-precipitation of the IGF-1R; endogenous in cells; host or cells: FM55 melanoma cells; conditions: for Level of IGF-1R phosphorylation in intact cells: OD, control cells = 100%
Description: The isolated cells were lyzed in 10 ml ice-cold PBSTDS containing protease inhibitors (Carlberg, M., et al., J Biol Chem 271:17453-17462, 1996). 50 μl protein A or G agarose was added in 1 ml sample and incubated for 15 min at 4° C. on an orbital shaker. After centrifugation for 10 min at 10,000 r/min at 4° C. the supernatant was saved. The protein content was determined by a dye-binding assay with a reagent purchased from Bio-Rad. Bovine serum albumin was used as a standard. 15 μl Protein G Plus agarose and 5 μl anti-IGF-1R were added. After a 3 h incubation at 4° C. on an orbital shaker the precipitate was collected by pulse centrifugation in a micro centrifuge at 14,000×g for 10 s. The supernatant was discarded and the pellet was washed 3 times with PBSTDS.
Protein samples were solved in a 2×-sample buffer containing Laemmli buffer and 0.5% […] and boiled for 5 min at 96° C. Samples were separated by SDS-PAGE with a 4% stacking gel and 7.5% separation gel. Molecular weight markers (Bio Rad, Sweden) were run simultaneously in all experiments.
Following SDS-PAGE the proteins were transferred overnight to nitro-cellulose membranes (Hybond, Amersham, UK) and then blocked for 1 h at room temperature in a solution of 4% skimmed milk powder and 0.02% Tween 20 in PBS, pH 7.5. Incubations with the primary antibodies were performed for 1 h at room temperature, followed by 3 washes with PBS with Tween and incubation with the second antibody for 1 h room temperature. After another 3 washes the membranes were incubated with Streptavidin-labelled horseradish peroxidase for 30 min and then detected using Amersham ECL system (Amersham, UK) The films were scanned by Fluor-S (BioRad).
Melanoma cells (line FM55) were seeded in 6-cm dishes, at a concentration of 10,000 cells/cm^2 in Minimal Essential Medium supplemented with 10% fetal calf serum (FCS). […] Treatment with 0 μM represents untreated controls. The cells were then isolated and subjected to immuno-precipitation of the IGF-1R. The immunoprecipitates, containing purified IGF-1R, were fractionated by gel electrophoresis. Phosphorylation of IGF-1R was detected by an anti-phosphotyrosine antibody using Western blotting. The obtained signals represent phosphorylated IGF-1R and the intensity of signals represents amounts of phosphorylated IGF-1R. Details of the methods used are described above. The intensities are quantified by a scanner, which measures the optical density (OD) of the signals. For the control cells the OD is set at 100%. The blank (OD 0%) represents the background. The results given in Table 1 below are mean values of 3 experiments.
FM 55 melanoma cells were cultured in the same way as described in Experiment 1. When reaching a density of 65,000 cells/cm^2 in the dishes, they were treated for 1 h with 0.05 μM podophyllotoxin, deoxypodophyllotoxin, acetylpodophyllotoxin, epipodophyllotoxin, 4′-demethyl-podophyllotoxin and podophyllotoxone. The cells were then harvested for assay and quantification of IGF-1R autophosphorylation as described above. The values shown in Table 2 represent means of 3 experiments.
Target sequence in this assay (P08069 31-1367): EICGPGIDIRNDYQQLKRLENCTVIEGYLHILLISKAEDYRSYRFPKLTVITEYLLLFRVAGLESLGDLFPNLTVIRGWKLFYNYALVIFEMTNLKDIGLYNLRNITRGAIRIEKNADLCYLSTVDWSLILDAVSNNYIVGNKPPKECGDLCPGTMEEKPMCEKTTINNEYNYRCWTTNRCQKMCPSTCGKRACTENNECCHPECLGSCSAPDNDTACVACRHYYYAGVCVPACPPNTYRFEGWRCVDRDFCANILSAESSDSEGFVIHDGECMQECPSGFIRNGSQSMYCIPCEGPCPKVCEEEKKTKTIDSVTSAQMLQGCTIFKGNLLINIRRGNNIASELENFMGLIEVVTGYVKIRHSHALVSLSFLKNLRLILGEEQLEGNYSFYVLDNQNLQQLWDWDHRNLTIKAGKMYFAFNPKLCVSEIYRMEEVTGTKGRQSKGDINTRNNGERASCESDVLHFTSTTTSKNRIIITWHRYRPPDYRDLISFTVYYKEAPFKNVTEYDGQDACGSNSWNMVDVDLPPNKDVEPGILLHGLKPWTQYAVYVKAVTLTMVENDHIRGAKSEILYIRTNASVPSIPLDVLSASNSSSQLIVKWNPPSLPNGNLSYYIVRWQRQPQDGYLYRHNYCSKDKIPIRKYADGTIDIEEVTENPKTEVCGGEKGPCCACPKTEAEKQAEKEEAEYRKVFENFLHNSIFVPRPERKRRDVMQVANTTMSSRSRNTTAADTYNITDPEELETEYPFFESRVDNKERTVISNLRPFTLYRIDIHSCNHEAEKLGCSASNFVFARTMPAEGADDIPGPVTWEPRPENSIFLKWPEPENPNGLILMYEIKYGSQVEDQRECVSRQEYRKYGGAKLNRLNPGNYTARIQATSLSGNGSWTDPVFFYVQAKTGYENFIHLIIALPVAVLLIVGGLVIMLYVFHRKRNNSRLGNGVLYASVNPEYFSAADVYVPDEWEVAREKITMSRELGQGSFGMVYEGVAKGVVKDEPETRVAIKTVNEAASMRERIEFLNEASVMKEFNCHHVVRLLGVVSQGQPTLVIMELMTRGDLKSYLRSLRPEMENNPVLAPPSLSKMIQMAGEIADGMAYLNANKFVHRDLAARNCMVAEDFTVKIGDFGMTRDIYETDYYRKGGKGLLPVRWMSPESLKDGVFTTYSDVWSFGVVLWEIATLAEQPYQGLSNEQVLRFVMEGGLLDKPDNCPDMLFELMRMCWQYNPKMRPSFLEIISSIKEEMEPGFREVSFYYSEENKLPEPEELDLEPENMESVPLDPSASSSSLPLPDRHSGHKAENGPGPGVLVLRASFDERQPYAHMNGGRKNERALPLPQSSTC

FM55 melanoma cells = experiment: Cell viability (XTT), FM55; assay type: cell-based, human
Description: (§1) Cell proliferation kit II (Roche Inc.) is based on calorimetric change of the yellow tetrazolium salt XTT in orange formazan dye by the respiratory chain of viable cells (Roehm, N W, et al., J Immunol Methods 142:257-265, 1991). Cells seeded at a concentration of 5000/well in 100 μl medium in a 96-well plate were treated with different drugs in the given concentration. After 24 or 48 h the cells were incubated, according to the manufacturer's protocol, with XTT labelling mixture. After 4 h the formazan dye is quantified using a scanning multiwell spectrophotometer with a 495-nm filter. The absorbance is directly correlated with number of viable cells. The standard absorbance curve was drawn by means of untreated cells seeded at a concentration of from 1000 to 10 000 cells/well with an increasing rate of 1000 cells/well. All standards and experiments were performed in triplicates.
(§2) 5 different types of cell lines were seeded in 96-well plates (medium volume in a well was 100 μl), at a concentration of 10,000 cells/cm^2 in Minimal Essential Medium supplemented with fetal calf serum. When the cells had reached a concentration of 65,000 cells/cm^2, they were treated with different doses of podophyllotoxin and deoxypodophyllotoxin for 48 h. Cell viability was then assayed (see above). IC50 values for each inhibitor and cell line, calculated as the concentration, resulting in a 50% decrease in cell survival, are shown below. The results are based on 4 different experiments.
FM55 melanoma cells were cultured in the same way as described in Experiment 3 and were treated with different doses of podophyllotoxin analogues as described in Experiment 3.

[2] = system: HL60 acute myeloid leukemia cells; experiment: Viability of leukemia cells, HL60; assay type: cell-based, human; conditions: HL60, 72 h, read-out: IC50 for viability of leukemia cell lines
Description: (§3) The human chronic myeloid leukemia K562/S and K562/Vcr30 lines and the acute myeloid leukemia cell lines HL60/0 and HL60/Nov were obtained from ATCC. The K562/S and HL60/0 are wild type (non-resistant) cells, whereas K562/Vcr30 and HL60/Nov are cytostatic-resistant sublines. All leukemia cell lines were cultured in RPMI 1640 medium supplemented with 10% fetal bovine serum and with 2 mM glutamine, 1% benzyl-penicillin and streptomycin. The cells were grown in tissue culture flasks maintained at 95% air/5% CO2 atmosphere at 37° C. in a humidified incubator. For the experiments 25,000 cells were cultured in 60-mm plastic dishes or 96-well plastic plates. The experiments on leukemia cells were performed in collaboration with Associate professor Sigurd Vitols, Department of Pharmacology, Karolinska Hospital (Stockholm, Sweden).
as §1
(§4) The leukemia cell lines K562/S, K562/Vcr 30, HL60/0 and HL60/Nov were proven to express the IGF-1R. This was assayed by Western blotting analysis, as described in Methods and Experiment 1 and 2. The 4 leukemia cell lines were seeded in 96-well plates (medium volume in a well was 100 μl), in RPMI40 medium supplemented with fetal calf serum. After 24 h podophyllotoxin, deoxypodophyllotoxin and other derivatives were added at different concentrations for 72 h. Cell viability was then assayed (see above). IC50 values for each inhibitor and cell lines are shown below (Table 5). The results are based on 3 different experiments.

[3] = system: K562/Vcr30 chronic myeloid leukemia cells (cytostatic-resistant); experiment: Viability of leukemia cells, K562/Vcr30; assay type: cell-based, human; conditions: K562/Vcr30, 72 h, read-out: IC50 for viability of leukemia cell lines
Description: as §3, §1, §4

[4] = system: HL60/Nov acute myeloid leukemia cells (cytostatic-resistant); experiment: Viability of leukemia cells, HL60/Nov; assay type: cell-based, human; conditions: read-out: IC50 for viability of leukemia cell lines
Description: as §3, §1, §4

[5] = system: K562/S chronic myeloid leukemia cells; experiment: Viability of leukemia cells, K562/S; assay type: cell-based, human; conditions: 72 h, read-out: IC50 for viability of leukemia cell lines
Description: as §3, §1, §4

rats = conditions: cited from earlier work; for LD50 in rats, fold higher than podophyllotoxin: relative to podophyllotoxin
Water solubility = assay type: physicochemical
SK-MEL-28 melanoma cells = experiment: Cell viability (XTT), SK-MEL-28; assay type: cell-based, human; conditions: 48 h
Description: as §1
as §2, with “IC50 values for each inhibitor and cell line, calculated as the concentration, resulting in a 50% decrease in cell survival, are shown below. The results are based on 4 different experiments.” left out

[6] = system: MCF-7 breast cancer cells; experiment: Cell viability (XTT), MCF-7; assay type: cell-based, human; conditions: 48 h
Description: as §1
as §2, with “IC50 values for each inhibitor and cell line, calculated as the concentration, resulting in a 50% decrease in cell survival, are shown below. The results are based on 4 different experiments.” left out

microtubules = conditions: cell free systems; cited from earlier work
IGF-1R beta-subunit = target: T2, IGF-1R beta-subunit (Homo sapiens, UniProt P08069); conditions: melanoma cells, 15 microM; cited from earlier work
T2 construct: host or cells: melanoma cells

IGF-1R [7] = target: T1, IGF-1R; experiment: Effect on IGF-1R (method not given)
Target sequence in this assay (P08069 31-1367, species assumed): as the sequence (P08069 31-1367) above

microtubuli = conditions: relative to podophyllotoxin; cited from earlier work
malignant cells = experiment: Cell death in malignant cells; assay type: cell-based
insulin receptor kinase = insulin receptor kinase (Homo sapiens, UniProt P06213); conditions: cited from earlier work
isolated IGF-1R kinase = isolated IGF-1R kinase (Homo sapiens, UniProt P08069); conditions: cited from earlier work
[8] = FM55 cells, 0.05 μM, 1 h, podophyllotoxin = 1, mean of 3
[9] = FM55, Experiment 4 (Table 4), read-out: IC50 for viability of FM55 cells
[10] = FM55 cells, 1 μM, 1 h, mean of 3
[11] = FM55 cells, 15 μM, 1 h, mean of 3
[12] = FM55 cells, 60 μM, 1 h, mean of 3

T2 sequence (P08069 31-1367): as above
isolated IGF-1R kinase, sequence (P08069 31-1367): as above
insulin receptor kinase, sequence (P06213 28-1382): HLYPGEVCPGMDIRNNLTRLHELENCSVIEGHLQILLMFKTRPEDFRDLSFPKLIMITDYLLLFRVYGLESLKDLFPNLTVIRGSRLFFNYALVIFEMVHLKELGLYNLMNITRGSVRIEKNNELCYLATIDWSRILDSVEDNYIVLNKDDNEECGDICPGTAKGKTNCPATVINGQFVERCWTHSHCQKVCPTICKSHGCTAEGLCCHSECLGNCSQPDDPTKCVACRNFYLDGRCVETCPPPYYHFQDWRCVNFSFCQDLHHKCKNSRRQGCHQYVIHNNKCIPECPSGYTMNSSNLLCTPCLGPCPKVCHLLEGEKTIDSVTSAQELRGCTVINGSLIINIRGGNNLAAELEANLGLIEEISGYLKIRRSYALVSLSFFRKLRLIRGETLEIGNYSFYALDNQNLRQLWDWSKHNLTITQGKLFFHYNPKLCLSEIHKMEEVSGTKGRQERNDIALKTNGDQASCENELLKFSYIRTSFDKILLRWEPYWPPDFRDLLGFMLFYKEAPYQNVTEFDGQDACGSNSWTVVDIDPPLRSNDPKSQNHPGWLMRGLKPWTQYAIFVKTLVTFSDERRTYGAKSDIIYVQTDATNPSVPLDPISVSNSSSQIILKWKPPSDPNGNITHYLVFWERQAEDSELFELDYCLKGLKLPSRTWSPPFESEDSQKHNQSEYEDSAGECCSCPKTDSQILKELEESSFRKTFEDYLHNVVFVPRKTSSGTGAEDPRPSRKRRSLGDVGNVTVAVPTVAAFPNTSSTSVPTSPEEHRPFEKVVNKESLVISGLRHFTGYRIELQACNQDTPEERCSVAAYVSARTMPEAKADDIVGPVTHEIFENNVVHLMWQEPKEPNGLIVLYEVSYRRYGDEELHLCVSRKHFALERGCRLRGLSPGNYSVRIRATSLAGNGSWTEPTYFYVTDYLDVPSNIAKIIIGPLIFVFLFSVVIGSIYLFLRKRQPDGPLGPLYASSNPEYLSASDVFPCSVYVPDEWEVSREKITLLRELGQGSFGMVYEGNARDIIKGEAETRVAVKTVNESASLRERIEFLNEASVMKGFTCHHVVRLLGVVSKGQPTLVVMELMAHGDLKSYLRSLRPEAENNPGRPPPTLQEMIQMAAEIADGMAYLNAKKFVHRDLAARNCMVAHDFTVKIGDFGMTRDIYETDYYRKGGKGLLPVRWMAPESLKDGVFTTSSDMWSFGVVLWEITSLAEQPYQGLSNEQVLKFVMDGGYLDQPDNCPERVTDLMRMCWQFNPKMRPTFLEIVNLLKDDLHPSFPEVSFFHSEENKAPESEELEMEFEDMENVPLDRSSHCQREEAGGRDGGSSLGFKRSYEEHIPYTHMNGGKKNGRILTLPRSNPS

Structure (SMILES): COc1cc([C@@H]2c3cc4c(cc3[C@H](O)[C@H]3COC(=O)[C@H]23)OCO4)cc(OC)c1O [4′-demethylpodophyllotoxin]
Inhibitory effect on IGF-1R autophosphorylation in intact cells in relation to podophyllotoxin, Relative potency (IGF-1R [1]; [8]): 0.5 | IC50 (FM55 melanoma cells; [9]): 40 nM | IC50 [2]: 20 nM | IC50 [3]: 50 nM | IC50 ([4]; 72 h): 18 nM | IC50 [5]: 22 nM

Structure (SMILES): COc1cc([C@@H]2c3cc4c(cc3[C@H](OC(C)=O)[C@H]3COC(=O)[C@H]23)OCO4)cc(OC)c1OC [Acetylpodophyllotoxin, acetylpodophyllotoxin]
Inhibitory effect on IGF-1R autophosphorylation in intact cells in relation to podophyllotoxin, Relative potency (IGF-1R [1]): 1.3 | inhibition of IGF-1R phosphorylation (in words) (IGF-1R [1]; FM55 cells, 0.05 μM, 1 h): potent inhibitors | IC50 (FM55 melanoma cells; [9]): 30 nM | IC50 [2]: 48 nM | IC50 [3]: 140 nM | LD50 in rats (rats): 185 mg/kg | IC50 ([4]; 72 h): 46 nM | IC50 [5]: 80 nM

Structure (SMILES): COc1cc([C@@H]2c3cc4c(cc3C[C@H]3COC(=O)[C@@H]32)OCO4)cc(OC)c1OC [Deoxypodophyllotoxin, deoxypodophyllotoxin]
inhibition of IGF-1R phosphorylation (in words) (IGF-1R [1]; FM55 cells, 0.05 μM, 1 h): potent inhibitors | Inhibitory effect on IGF-1R autophosphorylation in intact cells in relation to podophyllotoxin, Relative potency (IGF-1R [1]; [8]): 0.8 | IC50 (FM55 melanoma cells; [9]): 40 nM | IC50 (FM55 melanoma cells; FM55, melanoma, 48 h (Table 3), read-out: IC50 for cell viability): 40 nM | water solubility (Water solubility): about 0.01 mM | IC50 [2]: 3 nM | IC50 [3]: 4 nM | LD50 in rats, fold higher than podophyllotoxin (rats): > 15 fold | IC50 ([4]; 72 h): 2 nM | IC50 (SK-MEL-28 melanoma cells): 40 nM | IC50 [6]: 30 nM | IC50 [5]: 3 nM

Structure (SMILES): COc1cc([C@@H]2c3cc4c(cc3[C@@H](O)[C@H]3COC(=O)[C@H]23)OCO4)cc(OC)c1OC [Epipodophyllotoxin, epipodophyllotoxin]
Inhibitory effect on IGF-1R autophosphorylation in intact cells in relation to podophyllotoxin, Relative potency (IGF-1R [1]; [8]): 0.5 | IC50 ([2]; Homo sapiens, HL-60): 127 nM | IC50 ([3]; Homo sapiens): 450 nM | LD50 in rats (rats): > 200 mg/kg | IC50 ([4]; Homo sapiens, HL-60, 72 h): 90 nM | IC50 ([5]; Homo sapiens): 195 nM

Structure (SMILES): COc1cc([C@@H]2c3cc4c(cc3[C@@H](O[C@@H]3O[C@@H]5CO[C@@H](C)O[C@H]5[C@H](O)[C@H]3O)[C@H]3COC(=O)[C@H]23)OCO4)cc(OC)c1O [Etoposide, etoposide]
effect on microtubules (microtubules): no effect on microtubules

Level of IGF-1R phosphorylation in intact cells (IGF-1R [1]; [10]): 100% | Level of IGF-1R phosphorylation in intact cells (IGF-1R [1]; [11]): 96% | Level of IGF-1R phosphorylation in intact cells (IGF-1R [1]; [12]): 35% | effect on IGF-1R phosphorylation (in words) (IGF-1R [1]; FM55 cells, 1, 15, 60 μM, genistein statement at 60 μM): partial inhibitory effect
Structure (SMILES): O=c1c(-c2ccc(O)cc2)coc2cc(O)cc(O)c12 [Genistein, genistein]

Structure (SMILES): COc1cc([C@@H]2c3cc4c(cc3C(=O)[C@H]3COC(=O)[C@H]23)OCO4)cc(OC)c1OC [Podophyllotoxone, podophyllotoxone]
Inhibitory effect on IGF-1R autophosphorylation in intact cells in relation to podophyllotoxin, Relative potency (IGF-1R [1]): 0.3 | IC50 [2]: > 500 nM | IC50 [3]: > 500 nM | IC50 ([4]; 72 h): > 500 nM | IC50 [5]: > 500 nM

Level of IGF-1R phosphorylation in intact cells (IGF-1R [1]; [10]): 95% | Level of IGF-1R phosphorylation in intact cells (IGF-1R [1]; [11]): 20% | Level of IGF-1R phosphorylation in intact cells (IGF-1R [1]; [12]): 10%
Structure (SMILES): CC/C(=C(\c1ccccc1)c1ccc(OCCN(C)C)cc1)c1ccccc1 [Tamoxifen, tamoxifen]
tyrosine phosphorylation of the IGF-1R beta-subunit (IGF-1R beta-subunit): efficiently blocked

Structure (SMILES): COc1cc([C@@H]2c3cc4c(cc3[C@H](O)[C@H]3COC(=O)[C@@H]23)OCO4)cc(OC)c1OC [picropodophyllin]
effect on IGF-1R / inhibition of IGF-1R activity (in words) (IGF-1R [7]): equipotent to podophyllotoxin | affinity for microtubuli, fold lower than podophyllotoxin (microtubuli): 50 fold | LD50 in rats, fold higher than podophyllotoxin (rats): more than 35 fold | cell death in malignant cells (in words) (malignant cells): equipotent to podophyllotoxin

Structure (SMILES): COc1cc(C2c3cc4c(cc3C(OC3OC5COC(c6ccccc6)OC5C(O)C3O)C3COC(=O)C23)OCO4)cc(OC)c1OC [podophyllotoxin-4,6-O-benzylidene-β-D-glucopyranoside]
effect on IGF-1R / inhibition of IGF-1R activity (in words) (IGF-1R [7]): completely disappeared

Structure (SMILES): N#C/C(=C\c1ccc(O)c(O)c1)C(=O)c1ccc(O)c(O)c1 [tyrphostin AG 538]
effect on insulin receptor kinase (insulin receptor kinase): also blocked the insulin receptor kinase | IC50 (isolated IGF-1R kinase): 400 nM
